Measured values: patent US20240051978A1, “3-CYCLIC AMINE-INDOLE DERIVATIVES AS SEROTONERGIC AGENTS FOR THE TREATMENT OF CNS DISORDERS” (MINDSET PHARMA INC., priority 2020, published 2024)
Read-outs that look alike come from different tables or passages of the source.

How the values were obtained:
[1] = Liver microsomes stability, rat; settings: for Predicted hepatic CL: Rat liver microsomes, with NADPH; for Remaining Percentage (%) 0 min / Remaining Percentage (%) 60 min: Rat; for CLint scaled at 2 μM / half-life at 2 μM / microsomal CLint at 2 μM: rat, microsomes
Procedure: (§1) The objective of this study was to estimate in vitro metabolic stability of 1-12 in pooled human and male mouse liver microsomes. The concentrations of parent compounds in reaction systems were evaluated by LC-MS/MS for estimating the stability in pooled human and male mouse liver microsomes. The in vitro intrinsic clearances of test compounds were determined as well.
(§2) A master solution in the “Incubation Plate” containing phosphate buffer, ultra-pure H2O, MgCl2 solution and liver microsomes was made according to Table 3. The mixture was pre-warmed at 37° C. water bath for 5 minutes.
(§3) 40 μL of 10 mM NADPH solution was added to each well. The final concentration of NADPH was 1 mM. The negative control samples were prepared by replacing NADPH with 40 μL of ultra-pure H2O. Samples were prepared in duplicate. Negative controls were prepared in singlet.
(§4) The reaction was started with the addition of 4 μL of 200 μM exemplary test compounds or control compounds to each master solution to get the final concentration of 2 μM. This study was performed in duplicate.
(§5) Aliquots of 50 μL were taken from the reaction solution at 0, 15, 30, 45 and 60 minutes. The reaction solutions were stopped by the addition of 4 volumes of cold methanol with IS (100 nM alprazolam, 200 nM imipramine, 200 nM labetalol and 2 μM ketoprofen). Samples were centrifuged at 3,220 g for 40 minutes. Aliquot of 90 μL of the supernatant was mixed with 90 μL of ultra-pure H2O and then was used for LC-MS/MS analysis.
(§6) LC/MS analysis was performed for all samples from this study using a Shimadzu liquid chromatograph separation system equipped with degasser DUG-20A5R; solvent delivery unit LC-30AD; system controller SIL-30AC; column oven CTO-30A; CTC Analytics HTC PAL System; Mass spectrometric analysis was performed using an Triple Quad™ 5500 instrument.
(§7) All calculations were carried out using Microsoft Excel. Peak area ratios of test compound to internal standard (listed in the below table) were determined from extracted ion chromatograms.
(§8) All calculations were carried out using Microsoft Excel. Peak areas were determined from extracted ion chromatograms. The slope value, k, was determined by linear regression of the natural logarithm of the remaining percentage of the parent drug vs. incubation time curve.
(§9) The in vitro half-life (in vitro t½) was determined from the slope value:
(§10) Conversion of the in vitro t½ (min) into the in vitro intrinsic clearance (in vitro CLint, in μL/min/mg proteins) was done using the following equation (mean of duplicate determinations): […]

[2] = Liver microsomes stability, mouse; settings: for Predicted hepatic CL: Mouse liver microsomes, with NADPH; for Remaining Percentage (%) 0 min / Remaining Percentage (%) 60 min: Mouse; for CLint scaled at 2 μM / half-life at 2 μM / microsomal CLint at 2 μM: male, mouse, microsomes
Procedure: as §1, §2, §3, §4, §5, §6, §7, §8, §9, §10

human 5-HT2A receptor = human 5-HT2A receptor (Homo sapiens (Human), UniProt P28223); assay: Radioligand binding assay ([3H]-ketanserin) on human 5-HT2A receptor; settings: [3H]-ketanserin competition; read-out: h5-HT2A IC50
Procedure: • i. The assay buffer was prepared following the table below;
• ii. 8 doses of reference and exemplary test compounds were prepared starting from 10 mM stock solution as requested by 5-fold serial dilutions with 100%; • iii. (v/v) DMSO was prepared: a. 50 μl/well of 0.5% (v/v) PEI was added to UniFilter-96 GF/B plates. The plates were sealed and incubates at 4° C. for 3 hrs; b. After incubation, the plates were washed 3 times with ice-cold wash buffer (50 mM Tris, pH7.4); • iv. Preparation of assay plates: a. Cell membrane was diluted with assay buffer and 330 μl/well was added to 96 round deep well plates to reach a concentration of 20 μg/well; b. 8 concentrations of reference or exemplary test compounds were prepared and added 110 μl/well to 96 round deep well plates; c. [3H]-ketanserin was diluted with assay buffer to 5 nM (5× final concentration) and added 110 μl/well to 96 round deep well plates. • v. The plate were centrifuged at 1000 rpm for 30 secs and then agitated at 600 rpm, R.T. for 5 min. • vi. The plates were sealed and incubated at 27° C. for 90 min. • vii. The incubation was stopped by vacuum filtration onto GF/B filter plates followed by 4 times washing with ice-cold wash buffer (50 mM Tris, pH7.4). • vii. […] The filter plates were sealed and 40 μl/well of scintillation cocktail added. • x. The plate was read by using a Microbeta2 microplate counter.
For reference and exemplary test compounds, the results are expressed as % Inhibition, using the normalization equation: N=100−100×(U−C2)/(C1−C2), where U is the unknown value, C1 is the average of high controls, and C2 is the average of low controls. The IC50 was determined by fitting percentage of inhibition as a function of compound concentrations with Hill equation using XLfit.

[3] = target: human 5-HT2A (h5-HT2A) receptor (Homo sapiens (Human), UniProt P28223); assay: FLIPR assay, human 5-HT2A receptor under agonist mode; format: cell-based; settings: FLIPR calcium
Procedure: I. Assessment of the Activated Effect of Exemplary Compounds of Formula I Targeting on Human 5-HT2A (h5-HT2A) Receptor Under Agonist Mode:
1. the Cells were cultured in cell culture medium (DMEM containing 10% FBS 1×penicillin-streptomycin 300 μg/ml G418 and 100 μg/ml hygromycin B) at 37° C., 5% (v/v) CO2.
2. One day before the assays, the cells were detached using TrypLE™ Express and cells were counted using cell counter.
3. 20000 cells/well were seeded in 30 μl/well culture medium to a 384-well cell plate and the cells were incubated overnight at 37° C., 5% (v/v) CO2.
4. On the assay day, 2× dye solution was prepared following the manual of the FLIPR® Calcium 6 Assay Kit: i. The dye was diluted with assay buffer(20 mM HEPES in 1×HBSS, PH7.4); ii. Probenecid was added to the final concentration of 5 mM; iii. Vortex vigorously for 1-2 minutes.
5. Medium was removed from cell plate by flicking the cell plate on towel papers.
6. 10 μl of assay buffer and 10 μl of 2× dye solution was added to each well of the cell plate.
7. The cell plate was placed on plate shaker, and the plate was agitated at 600 rpm for 2 minutes. The plate was incubated at 37° C. for 2 hours followed by additional 15-minute incubation at 25° C.
8. 3× compound in assay buffer was prepared: a. reference compounds were diluted to required concentration with DMSO. Compounds were added to a 384-well compound plate; b. Serial dilutions were performed; c. 10 mM test compounds were added to the compound plate, 3-fold serial dilutions were performed. d. […] 20 μl/well assay buffer was added to the compound plate; f. The plate was mixed on plate shaker for 2 mins;
i. The normalized fluorescence reading (RFU) was calculated as shown below, wherein Fmax and Fmin stand for maximum and minimum of calcium signal during defined time window: RFU=Fmax−Fmin
ii. The percentage activation was calculated by using following equation: […]
iii. EC50 was calculated by fitting % activation against log of compound concentrations with Hill equation using XLfit.

[4] = Liver microsomes stability, human; settings: for Remaining Percentage (%) 0 min / Remaining Percentage (%) 60 min: Human; for CLint scaled at 2 μM / half-life at 2 μM / microsomal CLint at 2 μM: human, microsomes
Procedure: as §1, §2, §3, §4, §5, §6, §7, §8, §9, §10

[5] = cited from earlier work
[6] = Human liver microsomes, with NADPH

Compound | Predicted hepatic CL [1] | Remaining Percentage (%) 0 min ([1]; With NADPH) | Remaining Percentage (%) 60 min ([1]; With NADPH) | Remaining Percentage (%) 0 min ([1]; Without NADPH) | Remaining Percentage (%) 60 min ([1]; Without NADPH) | CLint scaled at 2 μM [1] | half-life at 2 μM [1] | microsomal CLint at 2 μM [1] | Predicted hepatic CL [2] | Remaining Percentage (%) 0 min ([2]; With NADPH) | Remaining Percentage (%) 60 min ([2]; With NADPH) | Remaining Percentage (%) 0 min ([2]; Without NADPH) | Remaining Percentage (%) 60 min ([2]; Without NADPH) | CLint scaled at 2 μM [2] | half-life at 2 μM [2] | microsomal CLint at 2 μM [2] | IC50 (human 5-HT2A receptor) | EC50 [3] | Predicted hepatic CL [4, 6] | Remaining Percentage (%) 0 min ([4]; With NADPH) | also measured
[2H]C1([2H])CC(c2c[nH]c3cccc(OCc4ccccc4)c23)C([2H])([2H])N1 (stereo not drawn) [Compound I-35, 4-(benzyloxy)-3-(pyrrolidin-3-yl-2,2,5,5-d4)-1H-indole] | 17.94 mL/min/kg | 100.00% | 64.09% | 100.00% | 103.32% | 26.6 mL/min/kg | 1.56 h | 14.8 µL/min/mg | 32.19 mL/min/kg | 100.00% | 70.91% | 100.00% | 90.87% | 50.1 mL/min/kg | 2.02 h | 11.5 µL/min/mg | < 1 µM | < 1 µM | 0.00 mL/min/kg | 100.00% | T1/2 (min) ([4]; Human liver microsomes, with NADPH, 2 μM): ∞; Remaining Percentage (%) 60 min ([4]; With NADPH): 104.21%; Remaining Percentage (%) 0 min ([4]; Without NADPH): 100.00%; Remaining Percentage (%) 60 min ([4]; Without NADPH): 119.60%
[2H]C1([2H])CC(c2c[nH]c3cccc(OCc4ccccc4)c23)C([2H])([2H])N1C (single isomer, unassigned) [Compound I-37, 4-(benzyloxy)-3-(1-methylpyrrolidin-3-yl-2,2,5,5-d4)-1H-indole] | 26.15 mL/min/kg | 100.00% | 43.53% | 100.00% | 101.84% | 49.7 mL/min/kg | 0.833 h | 27.7 µL/min/mg | 55.10 mL/min/kg | 100.00% | 37.75% | 100.00% | 93.26% | 142 mL/min/kg | 0.711 h | 32.5 µL/min/mg | < 1 µM | > 10 µM | 9.50 mL/min/kg | 100.00% | Remaining Percentage (%) 60 min ([4]; With NADPH): 65.70%; Remaining Percentage (%) 0 min ([4]; Without NADPH): 100.00%; Remaining Percentage (%) 60 min ([4]; Without NADPH): 99.55%; CLint scaled at 2 μM [4]: 17.6 mL/min/kg; half-life at 2 μM [4]: 1.65 h; microsomal CLint at 2 μM [4]: 14 µL/min/mg
CN(C)CCc1c[nH]c2cccc(OP(=O)(O)O)c12 [Psilocybin, 4-phosphoryloxy-N,N-dimethyltrypatmine] | – | – | – | – | – | – | – | – | – | – | – | – | – | – | – | – | – | – | – | – | abstinence rate ([5]; 12 months follow-up): 67%; abstinence rate ([5]; six months follow-up): 80%
[2H]C([2H])N1CCC(c2c[nH]c3cccc(O)c23)C1 (stereo not drawn) [Compound I-32, 3-(1-(methyl-d2)pyrrolidin-3-yl)-1H-indol-4-ol] | 0.96 mL/min/kg | 100.00% | 98.37% | 100.00% | 92.79% | 0.98 mL/min/kg | 42.2 h | 0.55 µL/min/mg | 18.85 mL/min/kg | 100.00% | 84.91% | 100.00% | 116.03% | 23.9 mL/min/kg | 4.24 h | 5.45 µL/min/mg | 1 to 10 µM | < 1 µM | 3.99 mL/min/kg | 100.00% | Remaining Percentage (%) 60 min ([4]; With NADPH): 88.84%; Remaining Percentage (%) 0 min ([4]; Without NADPH): 100.00%; Remaining Percentage (%) 60 min ([4]; Without NADPH): 96.34%; CLint scaled at 2 μM [4]: 4.95 mL/min/kg; half-life at 2 μM [4]: 5.86 h; microsomal CLint at 2 μM [4]: 3.94 µL/min/mg
